# According to US20180042923A1, “COMBINATIONS COMPRISING BREXPIPRAZOLE OR A SALT THEREOF AND A SECOND DRUG FOR USE IN THE TREATMENT OF A CNS DISORDER” (priority 2011, published 2018):
# What was measured:
# [1] = tested on: ddY male mice; experiment: Forced swimming test in mice (antidepressant action); assay type: in vivo
# Procedure: When an antidepressant is administered in advance, the immobility time is shortened. The shortened immobility time is used as an index of an antidepressant action to be evaluated. This test method is widely used as an experimental animal model reflecting the clinical antidepressant effect.
# In this test, the action of a combined use of 7-[4-(4-benzo[b]thiophen-4-yl-piperazin-1-yl)butoxy]-1H-quinolin-2-one (Compound (I)) and 9 kinds of antidepressants (serotonin reuptake inhibitors, or serotonin and norepinephrine reuptake inhibitors) on the immobility time was compared.
# As the animal, ddY male mice (5 to 6-week-old) were used. Various antidepressants and Compound (I) or each vehicle were administered to the mice before the start of the test, the mice were placed in a cylindrical water tank, and immobility time during 2 min to 4 min after the start of swimming was measured by a behavior analysis apparatus with an infrared sensor (SCANET; Melquest Co., Ltd.).
# Compound (I) was dissolved in 1% lactic acid-physiological saline, and various antidepressants were suspended or dissolved in 5% gum arabic-distilled water and used. Various antidepressants (fluoxetine (75 mg/kg), escitalopram (60 mg/kg), paroxetine (10 mg/kg), sertraline (15 mg/kg), venlafaxine (15 mg/kg), milnacipran (30 mg/kg), fluvoxamine (75 mg/kg)) were orally administered 60 min before the start of the test, duloxetine (20 mg/kg) and desvenlafaxine (20 mg/kg) were orally administered 30 min before the start of the test, and Compound (I) (0.001 or 0.003 mg/kg) was intraperitoneally administered 15 min before the start of the test.
# [2] = tested on: male ddY mice; experiment: Mouse marble-burying behavior test; assay type: in vivo; settings: Compound (I) 0.1 mg/kg p.o., 30 min before test, n=10
# Source text: Marble-burying behavior test is a behavioral evaluation test utilizing the behavior of a mouse to bury marbles on the bedding. Since this characteristic behavior of burying harmless glass marbles in the bedding reflects the anxiety state of the animal, and is apparently similar to a compulsive act of obsessive-compulsive disorder patient, which is repeated with the recognition of irrationality, it is particularly considered a model of obsessive-compulsive disorder^1),2),3),4).
# As the animal, male ddY mice (6- to 7-week-old) were used. In the test, a plastic cage (26×32×17 cm) was filled with chips to about 5 cm deep in a soundproof room, and 25 marbles (diameter 15 mm, weight about 6 g) were placed thereon at equal distances. Each mouse was orally administered with Compound (I) simultaneously with an antianxiety drug or an antidepressant or a vehicle thereof, and 30 min later, each mouse was placed in a cage containing the marbles. 30 min later, the animal was taken out from the cage, and the number of marbles covered with chips by ⅔ or more was visually counted.
# Compound (I) (0.1 mg/kg) and various antidepressants (fluoxetine (10 mg/kg), paroxetine (10 mg/kg), sertraline (10 mg/kg), fluvoxamine (15 mg/kg)) were suspended in 5% gum arable-distilled water, and diazepam (antianxiety drug, 1 mg/kg) was diluted with physiological saline and used. All drugs and vehicles thereof were orally administered 30 min before the start of the test.
# [3] = Compound (I) 0.001 mg/kg i.p. 15 min before test, venlafaxine 15 mg/kg p.o. 60 min before, n=10
# [4] = Compound (I) 0.003 mg/kg i.p. 15 min before test, desvenlafaxin 20 mg/kg p.o. 30 min before, n=8
# [5] = Compound (I) 0.003 mg/kg i.p. 15 min before test, duloxetine 20 mg/kg p.o. 30 min before, n=7
# [6] = Compound (I) 0.003 mg/kg i.p. 15 min before test, escitalopram 60 mg/kg p.o. 60 min before, n=10
# [7] = Compound (I) 0.003 mg/kg i.p. 15 min before test, fluoxetine 75 mg/kg p.o. 60 min before, n=10
# [8] = Compound (I) 0.003 mg/kg i.p. 15 min before test, fluvoxamine 75 mg/kg p.o. 60 min before, n=10
# [9] = Compound (I) 0.003 mg/kg i.p. 15 min before test, milnacipran 30 mg/kg p.o. 60 min before, n=10
# [10] = Compound (I) 0.003 mg/kg i.p. 15 min before test, paroxetine 10 mg/kg p.o. 60 min before, n=10
# [11] = Compound (I) 0.003 mg/kg i.p. 15 min before test, sertraline 15 mg/kg p.o. 60 min before, n=7
smiles,measurement,setting,value
"O=c1ccc2ccc(OCCCCN3CCN(c4cccc5sccc45)CC3)cc2[nH]1 [Compound (I), 7-[4-(4-benzo[b]thiophen-4-yl-piperazin-1-yl)butoxy]-1H-quinolin-2-one]",immobility time relative to control (%),[1]; [3],99%
same,immobility time relative to control (%),[1]; [4],96%
same,immobility time relative to control (%),[1]; [5],98%
same,immobility time relative to control (%),[1]; [6],96%
same,immobility time relative to control (%),[1]; [7],100%
same,immobility time relative to control (%),[1]; [8],100%
same,immobility time relative to control (%),[1]; [9],101%
same,immobility time relative to control (%),[1]; [10],98%
same,immobility time relative to control (%),[1]; [11],87%
same,number of marbles buried (average ± standard error),[2]; diazepam 1 mg/kg p.o.,14.4 ± 2.0
same,number of marbles buried relative to control (%),[2]; diazepam 1 mg/kg p.o.,96%
same,number of marbles buried (average ± standard error),[2]; fluoxetine 10 mg/kg p.o.,14.4 ± 2.0
same,number of marbles buried relative to control (%),[2]; fluoxetine 10 mg/kg p.o.,82%
same,number of marbles buried (average ± standard error),[2]; fluvoxamine 15 mg/kg p.o.,14.0 ± 1.6
same,number of marbles buried relative to control (%),[2]; fluvoxamine 15 mg/kg p.o.,86%
same,number of marbles buried (average ± standard error),[2]; paroxetine 10 mg/kg p.o.,11.3 ± 1.5
same,number of marbles buried relative to control (%),[2]; paroxetine 10 mg/kg p.o.,90%
same,number of marbles buried (average ± standard error),[2]; sertraline 10 mg/kg p.o.,12.2 ± 2.2
same,number of marbles buried relative to control (%),[2]; sertraline 10 mg/kg p.o.,91%
"CN(C)CC(c1ccc(O)cc1)C1(O)CCCCC1 (centres unmarked) [desvenlafaxin, desvenlafaxine]",immobility time relative to control (%),[1]; [4],95%
CN1C(=O)CN=C(c2ccccc2)c2cc(Cl)ccc21 [diazepam],number of marbles buried (average ± standard error),[2]; diazepam 1 mg/kg p.o.,12.8 ± 2.0
same,number of marbles buried relative to control (%),[2]; diazepam 1 mg/kg p.o.,85%
CNCC[C@H](Oc1cccc2ccccc12)c1cccs1 [duloxetine],immobility time relative to control (%),[1]; [5],95%
CN(C)CCC[C@@]1(c2ccc(F)cc2)OCc2cc(C#N)ccc21 [escitalopram],immobility time relative to control (%),[1]; [6],95%
CNCCC(Oc1ccc(C(F)(F)F)cc1)c1ccccc1 (centres unmarked) [fluoxetine],immobility time relative to control (%),[1]; [7],92%
same,number of marbles buried (average ± standard error),[2]; fluoxetine 10 mg/kg p.o.,17.3 ± 1.5
same,number of marbles buried relative to control (%),[2]; fluoxetine 10 mg/kg p.o.,98%
COCCCC/C(=N\OCCN)c1ccc(C(F)(F)F)cc1 [fluvoxamine],immobility time relative to control (%),[1]; [8],95%
same,number of marbles buried (average ± standard error),[2]; fluvoxamine 15 mg/kg p.o.,13.5 ± 2.1
same,number of marbles buried relative to control (%),[2]; fluvoxamine 15 mg/kg p.o.,83%
CCN(CC)C(=O)C1(c2ccccc2)CC1CN (centres unmarked) [milnacipran],immobility time relative to control (%),[1]; [9],97%
Fc1ccc([C@@H]2CCNC[C@H]2COc2ccc3c(c2)OCO3)cc1 [paroxetine],immobility time relative to control (%),[1]; [10],98%
same,number of marbles buried (average ± standard error),[2]; paroxetine 10 mg/kg p.o.,8.5 ± 2.0
same,number of marbles buried relative to control (%),[2]; paroxetine 10 mg/kg p.o.,60%
CN[C@H]1CC[C@@H](c2ccc(Cl)c(Cl)c2)c2ccccc21 [sertraline],immobility time relative to control (%),[1]; [11],91%
same,number of marbles buried (average ± standard error),[2]; sertraline 10 mg/kg p.o.,7.5 ± 0.7
same,number of marbles buried relative to control (%),[2]; sertraline 10 mg/kg p.o.,56%
COc1ccc(C(CN(C)C)C2(O)CCCCC2)cc1 (centres unmarked) [venlafaxine],immobility time relative to control (%),[1]; [3],96%
